Here are results for one compound from patent US20180008592A1, “TREATMENT OF UREMIC PRURITUS” (TREVI THERAPEUTICS, INC., priority 2016, published 2018).

In data set [1] the test system is hemodialysis patients with uremic pruritus who completed the Example 2 study. Put plainly: Phase 2/3 Open Label Extension Study (up to 24 weeks). Type of data set: in vivo, human. From the text:
This clinical study was a Phase 2/3 Open Label Extension Study of the randomized, double-blind, 3-parallel arm, placebo controlled dose ranging study described in Example 2. All those subjects who were randomized, and then completed Example 2 study, were eligible to participate in the Extension Study.
The primary endpoint was a description of the overall incidence and nature of Treatment-Emergent AEs (TEAES) with the secondary endpoint a description of the incidence and nature of TEAEs during Treatment Weeks 4-24. Exploratory efficacy endpoints related to collecting data on the PRO instruments (NRS, Skindex-10, Itch MOS Sleep, HADS, PADS), the same instruments evaluated in Example 2.
Of the 373 patients that were randomized to the study of Example 2, 184 subjects both completed the study of Example 2 and enrolled into Extension Study. 167 subjects who enrolled into Extension Study entered the Treatment Period of the study and were exposed to nalbuphine HCl ER tablet administration and are the basis of the study safety population analysis. 17 subjects who were enrolled in the Extension were never dosed, they were categorized as screen failures and they are not part of the analysis.
Patients in Extension Study were titrated over a dose range of 30 mg QD to 120 mg BID based on tolerability and efficacy. The selected dose range was based on Example 2 study whereby patients were titrated from a 30 mg QD dose either to 60 mg BID or a 120 mg BID dose. The highest dose proposed was 120 mg BID (240 mg daily dose), and was well below the highest recommended daily treatment of 160 mg IV (equivalent to 960 mg oral) for the current marketed product.
The study duration for each patient was up to 26 weeks, with up to 24 weeks on study drug. The Extension Study consisted of a Treatment Period (that was followed by a Washout Safety Follow-up Period) and an Observation Period. Patients either entered directly into a drug Treatment Period (NRS >2) or a no-drug Observation Period (NRS ≦2) based on their reported NRS scores on the first Visit (Visit 1a). For up to 12 Extended Screening weeks, patients in the no-drug Observation Period could have also transitioned into the drug Treatment Period if their NRS increased to NRS >2. All patients entering the Treatment Period, whether immediately upon study entry or following a period of time in the Observation Period, were titrated to a dose ranging between 30 mg up to 120 mg BID, the highest dose tested in Example 2.
The total study duration for any individual patient was up to 26 weeks. […] For patients who entered the Treatment Period from the Observation Period, the total amount of time spent in the combined two periods of the study could not exceed 24 weeks.

Data set [2] concerns renally impaired patients on hemodialysis with moderate or severe uremic pruritus. In words: Randomized double-blind placebo-controlled trial: Worst Itching Intensity Numerical Rating Scale (NRS). Type of data set: in vivo, human. To be noted: for Change from Baseline to the Evaluation Period NRS (mean SD): weeks 7 and 8, scale 0-10; for patients with ≧15% change from baseline to the Evaluation Period in the NRS: p=NS; for NRS, Change from Baseline to the Evaluation Period, mean (SD): severe pruritus subgroup (Baseline NRS ≧ 7), post-hoc. The procedure: This clinical study was a parallel, double-blind, placebo-controlled trial in which renally impaired patients on hemodialysis with moderate or severe uremic pruritus were randomized in a 1:1:1 ratio to nalbuphine ER tablets to a target dose of 120 mg BID or 60 mg BID, or matching placebo tablets BID. Medications taken for treatment of pruritus (“antipruritic medications”) were not prohibited, but their use was recorded throughout the study. Use of skin emollients was also not restricted. A placebo comparator was chosen because there are no approved treatments for uremic pruritus in the United States or Europe or an established standard of care that could serve as an active control.
The primary objectives were to evaluate the effects on itching intensity using a Worst Itching Intensity Numerical Rating Scale (NRS, 0 [no itching]-10 [worst possible itching]) (FIG. 7) as well as safety and tolerability. The study was conducted at 46 United States investigative sites and 6 investigative sites in Romania and Poland. The Sponsor oversaw the conduct of the trial and an independent unblinded Data Safety Monitoring Board reviewed safety data approximately once a month during the conduct of the trial.
To be eligible, patients had to have been on hemodialysis for 3 months, have a Patient Assessed Disease Severity (PADS) category of “B” or “C”, and a mean of 6 Worst Itching Numerical Rating Scale Scores during the week prior to randomization ≧4.5 on an 11-point scale (0, “no itching” to 10, “worst possible itching”) with at least 2 scores ≧5.0.
The primary endpoint was the change from Baseline to the Evaluation Period (Study weeks 7 and 8) in the modified intent-to-treat population. Quality of life-related secondary endpoints included change from Day 1 to the Evaluation Period in itching-related quality of life (using the Skindex-10 (FIG. 8)) and itching-related sleep disruption (using the Itch Medical Outcomes Study [Itch MOS] (FIG. 9), SLP-9). The Hospital Anxiety and Depression Score (HADS) used as a general measure of anxiety and depression. All patient-reported outcomes measures were selected based on their prior validation in uremic pruritus patients specifically or in the dialysis population more generally.
Patients were analyzed by group to which they were randomized.
The primary and quality of life secondary endpoint analyses used a mixed model repeated measures ANCOVA with the main effects of treatment and site and baseline worst itch NRS score as the covariate. The model included time (i.e. Visit) as a factor variable and treatment*time (with placebo as the reference category) with an unstructured covariance structure for repeated measures. Data from all post-baseline visits were used to fit the model. For the primary endpoint, the baseline value was defined as the mean of worst itch daytime and nighttime NRS scores used for satisfying the protocol inclusion criterion #5 (mean worst itching NRS≧4.5 based on a total of 3 daytime and 3 nighttime measurements from 3 dialysis visits). For the secondary endpoints, the baseline value was based on a measurement taken on Study Day 1, prior to randomization. A pre-specified step-down procedure was used. The first comparison was of nalbuphine 120 mg BID dose vs. placebo. If the first comparison was significant at the p<0.05 level, then the comparison between the nalbuphine 60 mg BID dose vs. placebo would be conducted. Patients with a 15% or greater response in worst itch NRS were analyzed using a Cochran-Mantel-Haenszel (CMH) test. Analysis of the Itch MOS utilized the SLP-9 scoring algorithm.
In the first 2 weeks of treatment, patients were blindly force-titrated to their assigned target dose, with the patients in the active arms reaching a dose of 60 mg BID (NAL 60) after the first week and, for those in the high dose group, to 120 mg BID (NAL 120) after the second week. Study drug was administered in blister cards containing the labeled morning and evening doses for each day of the week. […]

Where [3] appears, read: safety population, titrated 30 mg QD to 120 mg BID, up to 24 weeks, most pronounced with baseline NRS ≧7.

As to `Cl.Oc1ccc2c3c1O[C@H]1[C@@H](O)CC[C@@]4(O)[C@@H](C2)N(CC2CCC2)CC[C@]314` [Nalbuphine, 17-(cyclobutylmethyl)-4,5α-epoxymorphinian-3,6α, 14-triol, hydrochloride], the “Mean Skindex-10 by week” value in data set [1] (setting [3]) was “decreased from baseline to all measured time points”. Further, the “Mean worst itch NRS by week” value in data set [1] (setting [3]) is “decreased from baseline to all measured time points”. In addition, the safety findings result in data set [1] (treatment period up to 24 weeks) is on record as “consistent with the known safety profile of nalbuphine”. In data set [1] (up to 24 weeks), the “tolerance to the anti-pruritic effects” value is “do not develop a tolerance”. In addition, the “difference vs. placebo in worst itching NRS (primary endpoint)” value in data set [2] (60 mg BID) is listed as “no significant difference”. In addition, the “Change from Baseline to the Evaluation Period NRS (mean SD)” value is given as −3.1 (2.4) in data set [2] (60 mg BID ER tablets, N = 128, baseline NRS 6.9 (1.4)) and −3.5 (2.4) in data set [2] (120 mg BID ER tablets, N = 120, baseline NRS 6.9 (1.5), hydrochloride). The “Difference in the Change from Baseline to the Evaluation Period (LSMEAN, SE) vs. placebo” value in data set [2] (60 mg BID, 95% CI (−0.84, 0.37), p = 0.441) is recorded as −0.24 (0.31); in data set [2] (120 mg BID, 95% CI (−1.34, −0.13), p = 0.017), −0.73 (0.31). Moreover, the “patients with ≧15% change from baseline to the Evaluation Period in the NRS” value was found to be 80.5% in data set [2] (60 mg BID) and 84.5% in data set [2] (120 mg BID). For the same compound, the “development of tolerance to the effect on itch” value in data set [2] (120 mg BID, 8-week treatment period) was “no apparent development of tolerance”. Besides, in data set [2] (120 mg BID, moderate and severe uremic pruritus), the “reduction in itching intensity” value turned out to be 49%. Further, the “NRS, Change from Baseline to the Evaluation Period, mean (SD)” value in data set [2] (60 mg BID, N = 61, baseline 8.0 (0.9)) is −3.4 (2.6); in data set [2] (120 mg BID, N = 63, baseline 8.2 (0.8), p < 0.01), −4.5. Also, the “improvement of itching intensity and Itch MOS compared with placebo” value in data set [2] (severe subgroup (Baseline NRS ≧7.0), 60 mg BID) is “Neither itching intensity nor Itch MOS improved significantly”. For the same compound, the “decrease of mean itching intensity” value in data set [2] (severe subgroup (Baseline NRS ≧7.0), 120 mg BID) came out at 55%. The “absolute reduction of mean itching intensity (NRS)” value in data set [2] (severe subgroup (Baseline NRS ≧7.0, n=179), 120 mg BID, baseline 8.2 (0.8), p=0.007 vs. placebo) is 4.5 (2.5).
